“Also recorded” adds a separate entry of the source. Where a SMILES comes first, the peptide text is derived from it. The star is where a group is joined. Cbz = O=C(OCc1ccccc1)*
Tests used:
hXBP1s [1] = test: ER stress time course in HEK293T cells, Western blot of hXBP1s; type: cell-based, human
Experimental: (§1) hXBP1s plays an essential role in regulating BMSC support of MM cell growth. […] To test this hypothesis, the time-dependent protein expression patterns of hXBP1s and phosphorylated JNKs (p-JNKs) was determined in cells that were challenged with either a persistent or transient ER stress, induced by either thapsigargin (Thg) or dithiothrietol (DTT), respectively. […] The protein level of hXBP1s started to decline at 6-hrs, and the reduction continued till 12-hr, the end of Thg treatment. In contrast, Thg induced the phosphorylation of JNKs from 6 to 12-hrs of Thg treatment. This activation of JNKs coincided with the decrease in hXBP1s protein levels within the same time frame of Thg treatment (FIG. 1A).
DTT is a reducing agent that disrupts oxidative protein folding in the ER. Since the effects of DTT are rapidly reversible, and DTT can be readily removed by washing, it was used to mimic intermittent ER stress on cells. HEK293T cells were treated with DTT for 30 minutes, then DTT was washed away, and the cells were harvested at various time points after DTT removal. […] In addition, the cells recovered and further increased hXBP is protein expression at 2- and 5-hr post DTT removal. This process coincided with a drastic reduction in JNKs' phosphorylation (FIG. 1B).
(§2) Total cell lysates were prepared with RIPA buffer containing protease inhibitor cocktail and phosphatase inhibitor cocktails I/II (Sigma-Aldrich). After centrifugation, total cell lysates then were separated by 10% sodium dodecyl sulfate polyacrylamide gel electrophoresis and analyzed by immunoblot analysis as described previously. Signals were detected with ECL reagents (GE Healthcare Life Sciences). Semi-quantification of data was performed using Image J. For immunoprecipitation assay, Cells were washed with ice-cold PBS and lysed with lysis buffer (50 mM Tris-HCl, pH 7.5; 150 mM NaCl, 0.1% (wt/vol) Nondiet P40, 1 mM Ethylenediaminetetraacetic acid (EDTA); […]; protease inhibitor cocktail and phosphatase inhibitor cocktails I/II (Sigma-Aldrich). After overnight incubation with Anti-HA-agarose beads (Roche) or anti-hXBP1s antibody at 4° C. on a rotator, following by addition of Protein G Agarose to the reaction containing anti-hXBP1s antibody for 2 h at 4° C. Immunoprecipitates were washed three times with cold lysis buffer and boiled for 5 min in 2× Laemmli buffer for elution of immunoprecipitated HA-hXBP1s or Flag-hXBP1s complex. Samples were resolved in SDS-PAGE (Bio-Rad) and immunoblotted with corresponding antibody.

p-JNKs = test: ER stress time course in HEK293T cells, Western blot of phosphorylated JNKs; type: cell-based, human; settings: 30-minute treatment
Experimental: as §1
DTT is a reducing agent that disrupts oxidative protein folding in the ER. Since the effects of DTT are rapidly reversible, and DTT can be readily removed by washing, it was used to mimic intermittent ER stress on cells. […]
(§3) Total cell lysates were prepared with RIPA buffer containing protease inhibitor cocktail and phosphatase inhibitor cocktails I/II (Sigma-Aldrich). After centrifugation, total cell lysates then were separated by 10% sodium dodecyl sulfate polyacrylamide gel electrophoresis and analyzed by immunoblot analysis as described previously. Signals were detected with ECL reagents (GE Healthcare Life Sciences). […]

FLAG-hXBP1s [2] = test: Western blot of FLAG-hXBP1s (WT or S288A) in stably overexpressing KM101 cells; type: cell-based, human; settings: for effect of pretreatment on anisomycin-induced repression of FLAG-hXBP1s protein level: then stimulated with anisomycin; for effect on steady-state protein level of hXBP1s S288A mutant: S288A mutant expressing KM101 cells
Experimental: as §2

hXbp1s mRNA = test: Real-time PCR of hXbp1s mRNA in FLAG-hXBP1s-overexpressing KM101 cells; type: cell-based, human
Experimental: Real-time PCR was performed as described previously. B-Actin was used as an internal control.

[3] = test system: HA-hXBP1s / MYC-β-TrCP binding; test: Co-immunoprecipitation of HA-hXBP1s with MYC-β-TrCP in HEK293T cells; type: cell-based, human; settings: 10 nM JNKi for 4 hrs (FIG. 2F)
Experimental: as §2

VCAM-1 = test: TNFα-induced VCAM-1 protein expression in KM101 cells, Western blot; type: cell-based, human; settings: for TNFα-induced VCAM-1 protein expression: KM101 cells expressing (WT) hXBP1s
Experimental: as §2

5-TGM cells = test: Adhesion of 5-TGM cells to TNFα-treated KM101 cells; type: cell-based, mouse
Experimental: Human kidney […], human BM stromal cell lines KM101 cells, mouse MM cell line 5-TGM1, human MM cell lines ANBL-6 and MM1.S were cultured as described. Mouse macrophage cell line RAW264.7 were cultured in DMEM supplemented with 10% FBS. Isolation of primary hBMSCs was performed as described. These studies were approved by the University of Pittsburgh institutional review board and by the VA Pittsburgh Healthcare System institutional animal care and use committee. MM cell growth assay, cell adhesion assays, OCL formation assay were performed as described (Xu et al., Blood, 119:4205-4214 (2012)).

IL-6 = test: TNFα-induced IL-6 production in KM101 cells, ELISA; type: cell-based, human
Experimental: To determine hIL-6 secretion by BMSCs, supernatants from cell cultures were collected and analyzed with hIL-6 ELISA read-set go kits (eBioscience) according to the manufacturer's instructions, the mice's serum concentration of IgG2b, RANKL, IL-6 and CTX-I were measured with their respectively ELISA kit (Quidel, Roche, Roche and MyBioSource).

hXBP1s [4] = test: Western blot of steady-state hXBP1s protein (endogenous and overexpressed) in HEK293T and KM101 cells; type: cell-based, human
Experimental: as §2

FLAG-hXBP1s [5] = test: Western blot of FLAG-hXBP1s in HEK293T cells co-transfected with MYC-β-TrCP and MKK7-JNKs; type: cell-based, human; settings: pretreatment of HEK293T cells
Source text: Since JNKs repress hXBP1s protein expression, it was hypothesized that JNKs promote its β-TrCP binding and consequent degradation via the UPS-26S proteasome machinery. […] To determine the functional consequence of JNKs' potentiation of the physical interactions between MYC-β-TrCP and HA-hXBP1s. FLAG-XBP1s was overexpressed with a small/moderate amount of MYC-β-TrCP either in the presence or absence of MKK7-JNKs. […] Further, JNKs and MYC-β-TrCP's inhibition of FLAG-hXBP1s was abolished by pretreatment of cells with MG 132 (FIG. 2G). Consistent with the latter observation. […] Taking these observations together, it was concluded that JNKs promote the physical interactions between hXBP1s and D-TrCP, leading to the ubiquitination and consequent protein degradation of hXBP1s that results in a decrease in the steady-state levels of hXBP1s.
as §3

`O[C@H](CS)[C@H](O)CS` (racemic) [DTT, dithiothreitol] was tested, and the “basal hXBP1s protein expression” value (hXBP1s [1]; 30-minute treatment) was “quickly diminished” and the “phosphorylation of JNKs” value (p-JNKs) was “strongly induced”.

In the case of `CCOc1nc(NC(=O)Cc2cc(OC)ccc2OC)cc(N)c1C#N` [JNKi VIII], the “steady-state protein level of overexpressed (WT) FLAG-hXBP1s” value (FLAG-hXBP1s [2]; KM101 cells) is reported as “dose-dependent up-regulation”, the “effect of pretreatment on anisomycin-induced repression of FLAG-hXBP1s protein level” value (FLAG-hXBP1s [2]; KM101 cells) is reported as “largely prevented” and the “steady-state protein level of overexpressed (WT) FLAG-hXBP1s” value (FLAG-hXBP1s [2]; KM101 cells, listed as JNKi) is reported as “dose-dependently increased”. For the same compound, the “effect on steady-state protein level of hXBP1s S288A mutant” value (FLAG-hXBP1s [2]) was “completely abolished”, the “mRNA expression of hXbp1s” value (hXbp1s mRNA) was “no effect” and the “basal level binding of HA-hXBP1s with MYC-β-TrCP” value [3] was “abolished”. For the same compound, the “TNFα-induced VCAM-1 protein expression” value (VCAM-1) was “potentiated”, the “ANS inhibition of TNFα-induced VCAM-1 expression in presence of the substance” value (VCAM-1; KM101 cells, with ANS) was “compromised” and the “TNFα-induced stromal support of adhesion of 5-TGM cells” value (5-TGM cells) was “potentiated”. For the same compound, the “TNFα-induced stromal production of IL-6” value (IL-6) was “potentiated”.

With `CC(C)C[C@@H](C=O)NC(=O)[C@H](CC(C)C)NC(=O)[C@H](CC(C)C)NC(=O)OCc1ccccc1` [MG132] (Cbz-Leu-Leu-Leu-aldehyde) the “steady-state level of both endogenous and overexpressed hXBP1s” value (hXBP1s [4]) was “promptly and greatly elevated”, the “discrepancy in protein expression of S288A mutant and WT hXBP1s” value (FLAG-hXBP1s [2]; KM101 cells) was “abolished” and the “effect of pretreatment on anisomycin-induced repression of FLAG-hXBP1s protein level” value (FLAG-hXBP1s [2]; KM101 cells) was “completely blocked”. The “JNKs and MYC-β-TrCP's inhibition of FLAG-hXBP1s” value (FLAG-hXBP1s [5]) was “abolished”.

For `O=S(=O)(N=Cc1c(O)ccc2ccccc12)c1cccs1` [STF-083010], the “TNFα-induced VCAM-1 protein expression” value (VCAM-1) was “repressed”, the “JNKi's promotion of TNFα-induced stromal induction of VCAM-1” value (VCAM-1; KM101 cells, with JNKi) was “compromised” and the “TNFα-induced stromal support of adhesion of 5-TGM cells” value (5-TGM cells) was “repressed”. For the same compound, the “JNKi's promotion of stromal support to 5-TGM cells' adhesion” value (5-TGM cells; with JNKi) was “compromised”, the “TNFα-induced stromal production of IL-6” value (IL-6) was “repressed” and the “JNKi's promotion of stromal production of IL-6” value (IL-6; with JNKi) was “compromised”.

For `C/C=C(/C)C(=O)O[C@H]1C(C)=C2[C@H]([C@@H]1OC(=O)CCCCCCC)[C@@](C)(OC(C)=O)C[C@H](OC(=O)CCC)[C@@]1(O)[C@H]2OC(=O)[C@@]1(C)O` [Thg, thapsigargin], the “time at which endogenous hXBP1s peaked” value (hXBP1s [1]) was 4 h, the “time at which up-regulation of endogenous hXBP1s was first detected” value (hXBP1s [1]) was 2 h and the “time at which hXBP1s protein level started to decline” value (hXBP1s [1]; reduction continued till 12-hr) was 6 h. The “protein expression of endogenous hXBP1s during persistent ER stress” value (hXBP1s [1]; treatment up to 12-hr) was “time-dependent up-regulation”.

In the case of `COc1ccc(C[C@H]2NC[C@H](O)[C@H]2OC(C)=O)cc1` [anisomycin], the “steady-state protein level of overexpressed (WT) FLAG-hXBP1s” value (FLAG-hXBP1s [2]; KM101 cells) is reported as “drastically decreased; also recorded: greatly reduced”, the “effect on steady-state protein level of hXBP1s S288A mutant” value (FLAG-hXBP1s [2]) is reported as “completely lost its inhibitory effect” and the “mRNA expression of hXbp1s” value (hXbp1s mRNA) is reported as “no effect”. For the same compound, the “TNFα-induced VCAM-1 protein expression” value (VCAM-1; listed as ANS) was “dose-dependently repressed; also recorded: dose-dependently blocked” and the “inhibitory effect on TNFα-induced VCAM-1 protein expression in S288A mutant cells” value (VCAM-1; S288A mutant-overexpressing KM101 cells) was “largely abolished”.

Source: patent publication US11137400B2, “Methods for predicting and determining responsiveness to activators of JNK kinase” (UNIVERSITY OF PITTSBURGH-OF THE COMMONWEALTH SYSTEM OF …, priority 2017, dated 2021)
